This note sets out measurements from patent publication US20210206791.

The conditions of the series: the molecule shown is the open-chain precursor, crosslinker bond, CH3CN/H2O 1:1, 0.1 mM, 25.0 °C.

Where “and” joins values, the source holds several entries; their conditions need not be identical. Equal entries are not always repeated. Where two headings read alike, the source gives them in different places.

In the case of “H-Ala-Cys-Tyr-Lys-Arg-Ser-Asp-Phe-Thr-Cys-Gly-Gly-Gly-Ser-NH2?”, the ring closure, yield after HPLC by setting is: (bis-Pd aryl reagent 6b (2 equiv)/Tris pH 7.5) 85%; (bis-Pd aryl reagent 6c (2 equiv)/Tris pH 7.5) 70%; (bis-Pd aryl reagent 6e (2 equiv)/Tris pH 7.5) 100%; (bis-Pd aryl reagent 6d (2 equiv)/Tris pH 7.5) 84%; (bis-Pd aryl reagent (2 equiv, not named)/Tris pH 7.5) 79% and 92% and 94%.
